The source of these data is patent publication US20240024466A1, “LIPIDOID COMPOSITIONS AND METHODS OF USE THEREOF” (Trustees of Tufts College, priority 2020, published 2024).

For one data set, the system named is C57BL/6 mice. Description: OVA prime-boost immunization with LNP formulations, antibody response by ELISA. The settings on record: rough library screening, OVA formulated with LNPs, injections at day 1 and day 14, FIG. 7B.
Data set [1] deals with STING pathway. Description: In vivo ifnb1 and cxcl10 gene expression in tumors by RT PCR. The arrangement: species or system C57BL/6 mice. The settings on record: intratumoral, one day after DOX injection, 6 h post second injection.
Data set [2] relates to STING pathway. The data set can be described thus: In vitro ifnb1 and cxcl10 gene expression by RT PCR. It is filed as cell-based. The settings on record: DC2.4, 150 nM cGAMP, 4 h.
The next data set deals with B16F10 tumors. The data set can be described thus: Immunocellular composition of the tumor microenvironment (flow cytometry). The settings on record: 48 h after the second injection.
For data set [3], the system named is STING pathway. The data set can be described thus: In vitro ifnb1 and cxcl10 gene expression by RT PCR. It is filed as cell-based. The settings on record: RAW264.7, 150 nM cGAMP, 4 h.
The next data set concerns draining lymph nodes. The data set can be described thus: In vivo mRNA delivery, luciferase mRNA expression in draining lymph nodes. The settings on record: adjuvant incorporated into the LNP.
For another data set, the system named is dengue virus. Description: nAb response to a protein-based dengue virus vaccine with TLR ligands. The settings on record: in vivo. The source says: The two TLR ligands individually will be produced and in combination into mRNA-LNPs and test if they enhance nAb response and reduce antibody-dependent enhancement. The mechanisms underlying the enhanced nAb response will be investigated for further adjuvant optimization.

A further data set deals with B16F10 tumor. Description: Treatment of B16F10 tumor by in situ vaccination. The settings on record: DOX day 0, second and third injection day 1 and 5, intratumoral. It is filed as in vivo, C57BL/6 mice.
Another data set concerns BALB/c mice. The settings on record: s.c., IVIS 5 h after second injection.

Procedure for B16F10 tumors: To further evaluate the changes of the cellular composition after the treatment, the tumors were collected at 48 h after the second injection. The tumors were dissociated to single cells, stained with antibodies, and analyzed by the flowcytometry (FIG. 11).
After 48 h post the second injection, the tumors were collected and suspended to single cell solutions by 40 μm strainer (Thermo-Fisher). The cells were collected, washed with PBS, and stained with fluorescent antibodies of CD4 (APC-Cy7), CD8a (PE-Cy5), CD45 (PE), CD3e (FITC), F4/80 (APC), and CD11c (APC) in Flow Cytometry Staining Buffer (eBioscience). Fluorescent signal was measured using LSR-II flow cytometer (BD Biosciences). The data was analyzed by FlowJo-v10.

For the molecule lipopolysaccharide [LPS], the IgG1 antibody response result with C57BL/6 mice is given as “extremely positive”.

Turning to `Nc1nc2c(ncn2[C@@H]2O[C@@H]3COP(=O)(O)O[C@H]4[C@@H](O)[C@H](n5cnc6c(N)ncnc65)O[C@@H]4COP(=O)(O)O[C@@H]2[C@@H]3O)c(=O)[nH]1` [cGAMP, 2′5′-3′5′ cyclic guanosine monophosphate-adenosine monophosphate], in the data set on STING pathway [1], the “expression of ifnb1 and cxcl10 genes in B16F10 tumors” value is reported as “modest increase”. In addition, the “expression of ifnb1 gene compared with PBS-treated cells” value in the data set with STING pathway [2] and with STING pathway [3] was “modest increase” throughout. In the data set with B16F10 tumors, the “population of CD4+ and CD8+ T cells at tumor sites” value is given as “increasement”.

Pam3CSK4: in the data set with draining lymph nodes, the “expression of luciferase mRNA in draining lymph nodes” value is reported as “increased”. The “nAb responses to a protein-based dengue virus vaccine” value in the data set on dengue virus is “dramatically augment”.

As for poly I:C, the “nAb responses to a protein-based dengue virus vaccine” value in the data set on dengue virus is on record as “dramatically augment”.

With `COc1cccc2c1C(=O)c1c(O)c3c(c(O)c1C2=O)C[C@@](O)(C(=O)CO)C[C@@H]3O[C@H]1C[C@H](N)[C@H](O)[C@H](C)O1` [DOX, doxorubicin], the “expression of ifnb1 and cxcl10 genes in B16F10 tumors” value in the data set on STING pathway [1] is given as “did not changed significantly”. In addition, the “tumor growth inhibition (tumor volumes)” value in the data set on B16F10 tumor is “slight inhibition”. The “population of CD4+ and CD8+ T cells at tumor sites” value in the data set with B16F10 tumors is “did not make significant changes”.

B1: ovalbumin (protein, UniProt P01012 2-386, looked up)
Ovalbumin: GSIGAASMEFCFDVFKELKVHHANENIFYCPIAIMSALAMVYLGAKDSTRTQINKVVRFDKLPGFGDSIEAQCGTSVNVHSSLRDILNQITKPNDVYSFSLASRLYAEERYPILPEYLQCVKELYRGGLEPINFQTAADQARELINSWVESQTNGIIRNVLQPSSVDSQTAMVLVNAIVFKGLWEKAFKDEDTQAMPFRVTEQESKPVQMMYQIGLFRVASMASEKMKILELPFASGTMSMLVLLPDEVSGLEQLESIINFEKLTEWTSSNVMEERKIKVYLPRMKMEEKYNLTSVLMAMGITDVFSSSANLSGISSAESLKISQAVHAAHAEINEAGREVVGSAEAGVDAASVSEEFRADHPFLFCIKHIATNAVLFFGRCVSP
Turning to B1, the IgG1 antibody response result with C57BL/6 mice is “very low antibody response”.

B2: OVA^Alexa-647: Alexa Fluor 647-conjugated OVA, model antigen (protein, UniProt P01012 2-386, looked up)
Ovalbumin: GSIGAASMEFCFDVFKELKVHHANENIFYCPIAIMSALAMVYLGAKDSTRTQINKVVRFDKLPGFGDSIEAQCGTSVNVHSSLRDILNQITKPNDVYSFSLASRLYAEERYPILPEYLQCVKELYRGGLEPINFQTAADQARELINSWVESQTNGIIRNVLQPSSVDSQTAMVLVNAIVFKGLWEKAFKDEDTQAMPFRVTEQESKPVQMMYQIGLFRVASMASEKMKILELPFASGTMSMLVLLPDEVSGLEQLESIINFEKLTEWTSSNVMEERKIKVYLPRMKMEEKYNLTSVLMAMGITDVFSSSANLSGISSAESLKISQAVHAAHAEINEAGREVVGSAEAGVDAASVSEEFRADHPFLFCIKHIATNAVLFFGRCVSP
modifications: Alexa Fluor 647 label
B2: in the data set with BALB/c mice, the “distribution of OVA^Alexa-647 fluorescence signal” value is “mainly distributed in bladder”.
